Counter-ions that a name gives are not always drawn.
Biological target: GST tagged IRAK4 (Homo sapiens (Human), UniProt Q9NWZ3)
Experiment: IRAK4 Kinase Assay (IMAP fluorescence polarization)
Type: biochemical
Details: 0.5 nM GST tagged IRAK4, 100 μM ATP, 30 minutes at 25° C.
Protocol: The kinase activity of IRAK4 is determined by its ability to catalyze the phosphorylation of a fluorescent polypeptide substrate. The extent of phosphorylation is measured using the IMAP technology (Molecular Devices) where the phosphorylated fluorescent substrate binds to the large M(III)-based nanoparticles which reduces the rotational speed of the substrate and thus increases its fluorescent polarization (FP).
20 μL reaction mixture contains 10 mM TriHCl, pH 7.2, 0.5 nM GST tagged IRAK4 (SignalChem), 100 nM fluorescent peptide substrate (RP7030, Molecular Devices), 100 μM ATP, 1 mM DDT, 1 mM MgCl2, and 0.01% Tween 20. The reaction is initiated by the addition of ATP. After incubation for 30 minutes at 25° C., 60 μL of Progressive IMAP Reagent (Molecular Devices) is added to stop the reaction. Change in RP7030's FP is determined by a FP reader (Analyst HT, LJL BioSystems).

Sequence of GST tagged IRAK4 (Q9NWZ3 whole entry): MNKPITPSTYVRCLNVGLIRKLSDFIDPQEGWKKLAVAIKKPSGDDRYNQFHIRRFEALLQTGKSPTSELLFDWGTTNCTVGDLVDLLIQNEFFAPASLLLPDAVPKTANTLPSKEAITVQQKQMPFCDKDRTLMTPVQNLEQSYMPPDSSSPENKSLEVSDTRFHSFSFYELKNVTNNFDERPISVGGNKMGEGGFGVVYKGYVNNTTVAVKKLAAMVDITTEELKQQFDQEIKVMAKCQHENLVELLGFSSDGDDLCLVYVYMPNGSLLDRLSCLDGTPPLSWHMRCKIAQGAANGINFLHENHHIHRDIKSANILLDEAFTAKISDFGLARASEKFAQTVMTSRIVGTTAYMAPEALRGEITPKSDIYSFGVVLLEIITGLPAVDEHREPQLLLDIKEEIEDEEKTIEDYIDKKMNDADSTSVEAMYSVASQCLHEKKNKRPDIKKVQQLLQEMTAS

IC50 [nM]	SMILES
812	O=C(Nc1cscc1Br)c1csc2ncc(N3C[C@@H]4CC[C@H]3CN4)nc12 (single isomer, unassigned) [Example 46, N-(4-bromothiophen-3-yl)-2-[(1S,4S)- or (1R,4R)-2,5-diazabicyclo[2.2.2]oct-2-yl]thieno[2,3-b] pyrazine-7-carboxamide]
213	O=C(Nc1cscc1Br)c1csc2ncc(N3C[C@H]4CC[C@@H]3CN4)nc12 (single isomer, unassigned) [Example 49, N-(4-bromothiophen-3-yl)-2-[(1S,4S)- or (1R,4R)-2,5-diazabicyclo[2.2.2]oct-2-yl]thieno[2,3-b] pyrazine-7-carboxamide trifluoroacetate]
285	O=C(Nc1cscc1C(F)F)c1csc2ncc(N3C[C@@H]4CC[C@H]3CN4)nc12 (single isomer, unassigned) [Example 58, 2-[(1S,4S)- or (1R,4R)-2,5-diazabicyclo [2.2.2]oct-2-yl]-N-[4-(difluoromethyl)thiophen-3-yl] thieno[2,3-b] pyrazine-7-carboxamide trifluoroacetate]
21	O=C(Nc1cscc1C(F)F)c1csc2ncc(N3C[C@H]4CC[C@@H]3CN4)nc12 (single isomer, unassigned) [Example 59, 2-[(1S,4S)- or (1R,4R)-2,5-diazabicyclo [2.2.2]oct-2-yl]-N-[4-(difluoromethyl)thiophen-3-yl] thieno[2,3-b] pyrazine-7-carboxamide trifluoroacetate]
689	O=C(Nc1ccsc1Cl)c1csc2ncc(N3C[C@@H]4CC[C@H]3CN4)nc12 (single isomer, unassigned) [Example 61, N-(2-chlorothiophen-3-yl)-2-[(1S,4S)- or (1R,4R)-2,5-diazabicylo[2.2.2]oct-2-yl]thieno[2,3-b] pyrazine-7-carboxamide trifluoroacetate]
274	O=C(Nc1ccsc1Cl)c1csc2ncc(N3C[C@H]4CC[C@@H]3CN4)nc12 (single isomer, unassigned) [Example 62, N-(2-chlorothiophen-3-yl)-2-[(1S,4S)- or (1R,4R)-2,5-diazabicylo[2.2.2]oct-2-yl]thieno[2,3-b] pyrazine-7-carboxamide trifluoroacetate]
324	O=C(Nc1ccsc1Br)c1csc2ncc(N3C[C@@H]4CC[C@H]3CN4)nc12 (single isomer, unassigned) [Example 63, N-(2-bromothiophen-3-yl)-2-[(1S,4S)- or (1R,4R)-2,5-diazabicylo[2.2.2]oct-2-yl]thieno[2,3-b] pyrazine-7-carboxamide trifluoroacetate]
767	O=C(Nc1ccsc1Br)c1csc2ncc(N3C[C@H]4CC[C@@H]3CN4)nc12 (single isomer, unassigned) [Example 64, N-(2-bromothiophen-3-yl)-2-[(1S,4S)- or (1R,4R)-2,5-diazabicylo[2.2.2]oct-2-yl]thieno[2,3-b] pyrazine-7-carboxamide trifluoroacetate]
310	N#Cc1cscc1NC(=O)c1csc2ncc(N3C[C@@H]4CC[C@H]3CN4)nc12 (single isomer, unassigned) [Example 65, N-(4-cyanothiophen-3-yl)-2-[(1S,4S)- or (1R,4R)-2,5-diazabicylo[2.2.2]oct-2-yl]thieno[2,3-b] pyrazine-7-carboxamide formate]
220	N#Cc1cscc1NC(=O)c1csc2ncc(N3C[C@H]4CC[C@@H]3CN4)nc12 (single isomer, unassigned) [Example 66, N-(4-cyanothiophen-3-yl)-2-[(1S,4S)- or (1R,4R)-2,5-diazabicylo[2.2.2]oct-2-yl]thieno[2,3-b] pyrazine-7-carboxamide formate]
228	N#Cc1sccc1NC(=O)c1csc2ncc(N3C[C@@H]4CC[C@H]3CN4)nc12 (single isomer, unassigned) [Example 69, N-(2-cyanothiophen-3-yl)-2-[(1S,4S)- or (1R,4R)-2,5-diazabicyclo[2.2.2]oct-2-yl]thieno[2,3-b] pyrazine-7-carboxamide trifluoroacetate]
224	N#Cc1sccc1NC(=O)c1csc2ncc(N3C[C@H]4CC[C@@H]3CN4)nc12 (single isomer, unassigned) [Example 70, N-(2-cyanothiophen-3-yl)-2-[(1S,4S)- or (1R,4R)-2,5-diazabicyclo[2.2.2]oct-2-yl]thieno[2,3-b] pyrazine-7-carboxamide trifluoroacetate]
173	N#Cc1ccccc1NC(=O)c1csc2ncc(N3C[C@@H]4CC[C@H]3CN4)nc12 (single isomer, unassigned) [Example 97, N-(2-cyanophenyl)-2-[(1S,4S)- or (1R,4R)-2,5-diazabicyclo-[2.2.2]oct-2-yl]thieno[2,3-b]-pyrazine-7-carboxamide trifluoroacetate]
251	N#Cc1ccccc1NC(=O)c1csc2ncc(N3C[C@H]4CC[C@@H]3CN4)nc12 (single isomer, unassigned) [Example 98, N-(2-cyanophenyl)-2-[(1S,4S)- or (1R,4R)-2,5-diazabicyclo-[2.2.2]oct-2-yl]thieno[2,3-b]-pyrazine-7-carboxamide trifluoroacetate]
307	O=C(Nc1cscc1Cl)c1csc2ncc(N3C[C@@H]4CC[C@H]3CN4)nc12 (single isomer, unassigned) [Example 108, N-(4-chlorothiophen-3-yl)-2-[(1S,4S)- or (1R,4R)-2,5-diazabicyclo-[2.2.2]oct-2-yl]-thieno[2,3-b]-pyrazine-7-carboxamide trifluoroacetate]

The next lines start with the molecule.

SMILES	IC50 [nM]
Cn1cc(NC(=O)c2csc3ncc(N[C@H]4CCCCNC4)nc23)c(C(F)F)n1 (single isomer, unassigned) [Example 34, 2-[(3S)- or (3R)-azepan-3-ylamino]-N-[3-(difluoromethyl)-1-methyl-1H-pyrazol-4-yl]thieno[2,3-b] pyrazine-7-carboxamide trifluoroacetate]	2
Cn1cc(NC(=O)c2csc3ncc(N[C@@H]4CCCCNC4)nc23)c(C(F)(F)F)n1 (single isomer, unassigned) [Example 38, 2-[(3S)- or (3R)-azepan-3-ylamino]-N-[1-methyl-3-(trifluoromethyl)-1H-pyrazol-4-yl]thieno[2,3-b] pyrazine-7-carboxamide trifluoroacetate]	0.6
O=C(Nc1ccsc1C(F)(F)F)c1csc2ncc(N3C[C@@H]4CC[C@H]3CN4)nc12 (single isomer, unassigned) [Example 74, 2-[(1S,4S)- or (1R,4R)-2,5-diazabicyclo [2.2.2]oct-2-yl]-N-[2-(trifluoromethyl)thiophen-3-yl] thieno[2,3-b] pyrazine-7-carboxamide trifluoroacetate]	3650
O=C(Nc1ccsc1C(F)(F)F)c1csc2ncc(N3C[C@H]4CC[C@@H]3CN4)nc12 (single isomer, unassigned) [Example 75, 2-[(1S,4S)- or (1R,4R)-2,5-diazabicyclo [2.2.2]oct-2-yl]-N-[2-(trifluoromethyl)thiophen-3-yl] thieno[2,3-b] pyrazine-7-carboxamide trifluoroacetate]	1230
O=C(Nc1ccccc1Br)c1csc2ncc(N3C[C@@H]4CC[C@H]3CN4)nc12 (single isomer, unassigned) [Example 88, N-(2-bromophenyl)-2-[(1S,4S)- or (1R,4R)-2,5-diazabicyclo-[2.2.2]oct-2-yl]thieno[2,3-b]-pyrazine-7-carboxamide trifluoroacetate]	2870
O=C(Nc1ccccc1Br)c1csc2ncc(N3C[C@H]4CC[C@@H]3CN4)nc12 (single isomer, unassigned) [Example 89, N-(2-bromophenyl)-2-[(1S,4S)- or (1R,4R)-2,5-diazabicyclo-[2.2.2]oct-2-yl]thieno[2,3-b]-pyrazine-7-carboxamide trifluoroacetate]	612
N#Cc1ccccc1NC(=O)c1csc2ncc(N[C@H]3CCCCNC3)nc12 (single isomer, unassigned) [Example 93, 2-[(3S)- or (3R)-azepan-3-ylamino]-N-(2-cyanophenyl)-thieno[2,3-b]-pyrazine-7-carboxamide trifluoroacetate]	4
N#Cc1ccccc1NC(=O)c1csc2ncc(N[C@@H]3CCCCNC3)nc12 (single isomer, unassigned) [Example 94, 2-[(3S)- or (3R)-azepan-3-ylamino]-N-(2-cyanophenyl)-thieno[2,3-b]-pyrazine-7-carboxamide trifluoroacetate]	9
O=C(Nc1ccccc1Cl)c1csc2ncc(N3C[C@@H]4CC[C@H]3CN4)nc12 (single isomer, unassigned) [Example 99, N-(2-chlorophenyl)-2-[(1S,4S)- or (1R,4R)-2,5-diazabicyclo-[2.2.2]oct-2-yl]thieno[2,3-b]-pyrazine-7-carboxamide trifluoroacetate]	1560
O=C(Nc1ccccc1Cl)c1csc2ncc(N3C[C@H]4CC[C@@H]3CN4)nc12 (single isomer, unassigned) [Example 100, N-(2-chlorophenyl)-2-[(1S,4S)- or (1R,4R)-2,5-diazabicyclo-[2.2.2]oct-2-yl]thieno[2,3-b]-pyrazine-7-carboxamide trifluoroacetate]	191
O=C(Nc1ccccc1C(F)F)c1csc2ncc(N3C[C@H]4CC[C@@H]3CN4)nc12 (single isomer, unassigned) [Example 104, 2-[(1S,4S)- or (1R,4R)-2,5-diazabicyclo-[2.2.2]oct-2-yl]-N-[2-(difluoro-methyl)phenyl]-thieno[2,3-b]-pyrazine-7-carboxamide trifluoroacetate]	4180

Reference: US10040802B2, “Thienopyrazine inhibitors of IRAK4 activity” (MERCK SHARP & DOHME CORP., priority 2015, dated 2018)
